Measurements as given in US20210107874A1, “PHARMACEUTICAL FORMULATION OF CROTONYLAMINOPYRIDINE SALT” (priority 2017, published 2021).
Values joined by “and” are separate entries in the source; they are usually repeats but may differ in a detail not shown here. Identical values can stand only once. Like-named read-outs stand apart in the source and are kept apart here.

How the values were obtained:
[1] = Solubility of salts of compound 4: compound added in portions to acid in water until no clear solution; assay type: physicochemical; details: for Dissolved g of 4 / pH: clear solution
Method: A defined amount of an acid (1.0 g) was weighed into a flask and dissolved in water (10 ml). […] The pH value was measured after each addition.
Thus 8 g of compound 4 in 10 ml of water can be dissolved.

[2] = PK studies of formulations, plasma by HPLC-MS/MS; assay type: in vivo; details: Cattle
Method: The following formulations were prepared and administered to animals. Blood samples were collected at pre-defined time points and the amount of compound present in plasma at the time of sampling was determined by HPLC-MS/MS. Pharmacokinetic parameters were then calculated: Cmax, Tmax, Tlast, AUC. [table]

[3] = 0.5 g Acetic acid in 10 ml water
[4] = 1.0 g Citric acid in 10 ml water
[5] = 1.0 g Tartaric acid in 10 ml water
[6] = Form O62.5 (FormO type: L-tartaric acid, NaOH to pH 4.4, water), SC, 1.25 mg/kg

CCOc1cc(NCCNC(=O)/C=C/C(F)(F)F)ccn1 [Compound 4, (E)-N-[2-[(2-ethoxy-4-pyridyl)amino]ethyl]-4,4,4-trifluoro-but-2-enamide]
Dissolved g of 4 [1, 3]: 1 g
pH [1, 3]: 4.6
Dissolved g of 4 [1, 4]: 2.5 g
pH [1, 4]: 4.4
Dissolved g of 4 ([1]; 1.0 g Maleic acid in 10 ml water): <0.1 g
Dissolved g of 4 [1, 5]: 3.5 g
pH [1, 5]: 4.2
appearance of solution ([1]; 2 g compound 4 and 1 g tartaric acid in 2.5 ml water): clear solution
amount that can be dissolved in 10 ml of water ([1]; with tartaric acid, scaled from 2 g in 2.5 ml): 8 g
Tlast ([2]; Form A50 (NMP, propylene glycol, water), SC, 1.25 mg/kg): 6.5 h
Tlast ([2]; Form B62.5 (dimethyl acetamide, propylene glycol, water), SC, 1.25 mg/kg): 5.33 h
AUC [2, 6]: 372 ng·h/mL
Cmax [2, 6]: 428 ng/mL
Tlast [2, 6]: 4 h and 3 h
Tmax [2, 6]: 18.6 min
Tlast ([2]; FormC62.5 (propylene glycol, ethanol, Transcutol P), SC, 1.25 mg/kg): 10.7 h
Tlast ([2]; FormD62.5 (PEG 300, ethanol, Transcutol P), SC, 1.25 mg/kg): 4 h
Tlast ([2]; FormE62.5 (polyethylene glycol 300, ethyl alcohol 96%, water), SC, 1.25 mg/kg): 5 h
Tlast ([2]; FormF62.5 (polyethylene glycol, 1-octanol, 2-pyrrolidone), SC, 1.25 mg/kg): 8 h
Tlast ([2]; FormG62.5 (benzyl alcohol, ethyl alcohol 96%, polyethylene glycol 300), SC, 1.25 mg/kg): 5.33 h
Tlast ([2]; FormH62.5 (DMA, DMSO, 2-pyrrolidone), SC, 1.25 mg/kg): 4 h
Tlast ([2]; FormJ62.5 (DMSO, 2-pyrrolidone, ethyl lactate), SC, 1.25 mg/kg): 4 h
Tlast ([2]; FormK62.5 (2-pyrrolidone, Transcutol P, ethyl lactate), SC, 1.25 mg/kg): 4 h
Tlast ([2]; FormL50 (DMA, propylene glycol, water), SC, 1.25 mg/kg): 4 h
Tlast ([2]; FormM62.5 (L-tartaric acid, sodium hydroxide up to pH 4.6, water), SC, 1.25 mg/kg): 3.33 h
Tlast ([2]; FormO60 (FormO type: L-tartaric acid, NaOH to pH 4.4, water), SC, 1 mg/kg): 2.67 h
Tlast ([2]; FormP62.5 (L-tartaric acid, 2-pyrrolidone, NaOH, water), SC, 1.25 mg/kg): 6.67 h
Tlast ([2]; FormQ62.5 (L-tartaric acid, sodium carboxymethyl cellulose, NaOH up to pH 4.3, water), SC, 1.25 mg/kg): 4 h
Tlast ([2]; FormR50 (L-tartaric acid, 2-pyrrolidone, NaOH, water), SC, 1 mg/kg): 6.67 h
Tlast ([2]; FormS50 (L-tartaric acid, sodium carboxymethyl cellulose, 2-pyrrolidone, NaOH, water), SC, 1 mg/kg): 8.67 h
Tlast ([2]; FormT50 (DL-Lactic acid, hydrochloric acid up to pH 4.4, water), SC, 1 mg/kg): 3.67 h
AUC ([2]; bovine, plasma, sc, 1 mg/kg, FormR50 (L-tartaric acid, 2-pyrrolidone, NaOH, water), 1 mg/kg, read-out: AUC): 248 ng·h/mL
Cmax ([2]; bovine, plasma, sc, 1 mg/kg, FormR50 (L-tartaric acid, 2-pyrrolidone, NaOH, water), 1 mg/kg, read-out: Cmax): 59.4 ng/mL
Tmax ([2]; bovine, plasma, sc, 1 mg/kg, FormR50 (L-tartaric acid, 2-pyrrolidone, NaOH, water), 1 mg/kg, read-out: Tmax): 60 min
AUC ([2]; bovine, plasma, sc, 1 mg/kg, FormS50 (L-tartaric acid, sodium carboxymethyl cellulose, 2-pyrrolidone, NaOH, water), 1 mg/kg, read-out: AUC): 339 ng·h/mL
Cmax ([2]; bovine, plasma, sc, 1 mg/kg, FormS50 (L-tartaric acid, sodium carboxymethyl cellulose, 2-pyrrolidone, NaOH, water), 1 mg/kg, read-out: Cmax): 69.3 ng/mL
Tmax ([2]; bovine, plasma, sc, 1 mg/kg, FormS50 (L-tartaric acid, sodium carboxymethyl cellulose, 2-pyrrolidone, NaOH, water), 1 mg/kg, read-out: Tmax): 79.8 min
AUC ([2]; bovine, plasma, sc, 1 mg/kg, pH 4.4, FormO60 (FormO type: L-tartaric acid, NaOH to pH 4.4, water), 1 mg/kg, read-out: AUC): 302 ng·h/mL
Cmax ([2]; bovine, plasma, sc, 1 mg/kg, pH 4.4, FormO60 (FormO type: L-tartaric acid, NaOH to pH 4.4, water), 1 mg/kg, read-out: Cmax): 374 ng/mL
Tmax ([2]; bovine, plasma, sc, 1 mg/kg, pH 4.4, FormO60 (FormO type: L-tartaric acid, NaOH to pH 4.4, water), 1 mg/kg, read-out: Tmax): 15 min
AUC ([2]; bovine, plasma, sc, 1 mg/kg, pH 4.4, FormT50 (DL-Lactic acid, hydrochloric acid up to pH 4.4, water), 1 mg/kg, read-out: AUC): 293 ng·h/mL
Cmax ([2]; bovine, plasma, sc, 1 mg/kg, pH 4.4, FormT50 (DL-Lactic acid, hydrochloric acid up to pH 4.4, water), 1 mg/kg, read-out: Cmax): 281 ng/mL
Tmax ([2]; bovine, plasma, sc, 1 mg/kg, pH 4.4, FormT50 (DL-Lactic acid, hydrochloric acid up to pH 4.4, water), 1 mg/kg, read-out: Tmax): 25.2 min
AUC ([2]; bovine, plasma, sc, 1.25 mg/kg, Form A50 (NMP, propylene glycol, water), 1.25 mg/kg, read-out: AUC): 204 ng·h/mL
Cmax ([2]; bovine, plasma, sc, 1.25 mg/kg, Form A50 (NMP, propylene glycol, water), 1.25 mg/kg, read-out: Cmax): 127 ng/mL
Tmax ([2]; bovine, plasma, sc, 1.25 mg/kg, Form A50 (NMP, propylene glycol, water), 1.25 mg/kg, read-out: Tmax): 26.4 min
AUC ([2]; bovine, plasma, sc, 1.25 mg/kg, Form B62.5 (dimethyl acetamide, propylene glycol, water), 1.25 mg/kg, read-out: AUC): 98.2 ng·h/mL
Cmax ([2]; bovine, plasma, sc, 1.25 mg/kg, Form B62.5 (dimethyl acetamide, propylene glycol, water), 1.25 mg/kg, read-out: Cmax): 37.4 ng/mL
Tmax ([2]; bovine, plasma, sc, 1.25 mg/kg, Form B62.5 (dimethyl acetamide, propylene glycol, water), 1.25 mg/kg, read-out: Tmax): 30 min
AUC ([2]; bovine, plasma, sc, 1.25 mg/kg, FormC62.5 (propylene glycol, ethanol, Transcutol P), 1.25 mg/kg, read-out: AUC): 130 ng·h/mL
Cmax ([2]; bovine, plasma, sc, 1.25 mg/kg, FormC62.5 (propylene glycol, ethanol, Transcutol P), 1.25 mg/kg, read-out: Cmax): 46.4 ng/mL
Tmax ([2]; bovine, plasma, sc, 1.25 mg/kg, FormC62.5 (propylene glycol, ethanol, Transcutol P), 1.25 mg/kg, read-out: Tmax): 39.6 min
AUC ([2]; bovine, plasma, sc, 1.25 mg/kg, FormD62.5 (PEG 300, ethanol, Transcutol P), 1.25 mg/kg, read-out: AUC): 63.2 ng·h/mL
Cmax ([2]; bovine, plasma, sc, 1.25 mg/kg, FormD62.5 (PEG 300, ethanol, Transcutol P), 1.25 mg/kg, read-out: Cmax): 25.4 ng/mL
Tmax ([2]; bovine, plasma, sc, 1.25 mg/kg, FormD62.5 (PEG 300, ethanol, Transcutol P), 1.25 mg/kg, read-out: Tmax): 55.2 min
AUC ([2]; bovine, plasma, sc, 1.25 mg/kg, FormE62.5 (polyethylene glycol 300, ethyl alcohol 96%, water), 1.25 mg/kg, read-out: AUC): 76.4 ng·h/mL
Cmax ([2]; bovine, plasma, sc, 1.25 mg/kg, FormE62.5 (polyethylene glycol 300, ethyl alcohol 96%, water), 1.25 mg/kg, read-out: Cmax): 45.7 ng/mL
Tmax ([2]; bovine, plasma, sc, 1.25 mg/kg, FormE62.5 (polyethylene glycol 300, ethyl alcohol 96%, water), 1.25 mg/kg, read-out: Tmax): 25.2 min
AUC ([2]; bovine, plasma, sc, 1.25 mg/kg, FormF62.5 (polyethylene glycol, 1-octanol, 2-pyrrolidone), 1.25 mg/kg, read-out: AUC): 78.5 ng·h/mL
